Test results published in PubChem BioAssay AID1963966 (Molecular Pharmacology Branch, DTP, NCI, 2024).
pIC50: −log10 of the molar value.

Tested on: 935938-334-R-J1-PDC spheroids with HUVEC/MSC, viability
Test: Anticancer human tumor 935938-334-R-J1-PDC patient-derived small intestine adenocarcinoma cell line growth inhibition [PI3K]
Conditions: for pIC50: curve of first compound; for viability, T/C: stronger effect = lower value
How it was run: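 Viability of mixed-cell spheroids was determined after exposure to pairwise combinations, one partner being inavolisib, alpelisib, duvelisib or copanlisib. Highest tested concentration matched clinical Cmax where known and 10 microM where not, descending in half-log steps.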
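Further: compound exposure lasted seven days before viability was read.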
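Wherever viability, T/C is given: percent of vehicle DMSO treated spheroid viability so 100% = untreated.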

C[C@@H](NC(=O)c1ncnc(N)c1Cl)c1ncc(C(=O)Nc2cc(C(F)(F)F)c(Cl)cn2)s1 + Cc1nc(NC(=O)N2CCCC2C(N)=O)sc1-c1ccnc(C(C)(C)C(F)(F)F)c1
pIC50 (second compound 0.0316 µM): < 5.00
pIC50 (second compound 0.1 µM): < 5.00
pIC50 (second compound 0.316 µM): < 5.00
pIC50 (second compound 1 µM): < 5.00
pIC50 (second compound 3.16 µM): 5.18
pIC50 (second compound 10 µM): 6.57
viability, T/C (second compound 0.0316 µM, first compound 0.0316 µM): 112%
viability, T/C (second compound 0.0316 µM, first compound 0.1 µM): 100%
viability, T/C (second compound 0.0316 µM, first compound 0.316 µM): 98.7%
viability, T/C (second compound 0.0316 µM, first compound 1 µM): 88.1%
viability, T/C (second compound 0.0316 µM, first compound 3.16 µM): 90.7%
viability, T/C (second compound 0.0316 µM, first compound 10 µM): 81.6%
viability, T/C (second compound 0.1 µM, first compound 0.0316 µM): 94.1%
viability, T/C (second compound 0.1 µM, first compound 0.1 µM): 108%
viability, T/C (second compound 0.1 µM, first compound 0.316 µM): 101%
viability, T/C (second compound 0.1 µM, first compound 1 µM): 115%
viability, T/C (second compound 0.1 µM, first compound 3.16 µM): 95.5%
viability, T/C (second compound 0.1 µM, first compound 10 µM): 68.6%
viability, T/C (second compound 0.316 µM, first compound 0.0316 µM): 104%
viability, T/C (second compound 0.316 µM, first compound 0.1 µM): 108%
viability, T/C (second compound 0.316 µM, first compound 0.316 µM): 109%
viability, T/C (second compound 0.316 µM, first compound 1 µM): 87.8%
viability, T/C (second compound 0.316 µM, first compound 3.16 µM): 89.8%
viability, T/C (second compound 0.316 µM, first compound 10 µM): 78%
viability, T/C (second compound 1 µM, first compound 0.0316 µM): 105%
viability, T/C (second compound 1 µM, first compound 0.1 µM): 80.4%
viability, T/C (second compound 1 µM, first compound 0.316 µM): 87.4%
viability, T/C (second compound 1 µM, first compound 1 µM): 89.5%
viability, T/C (second compound 1 µM, first compound 3.16 µM): 79.9%
viability, T/C (second compound 1 µM, first compound 10 µM): 68.2%
viability, T/C (second compound 3.16 µM, first compound 0.0316 µM): 53.6%
viability, T/C (second compound 3.16 µM, first compound 0.1 µM): 55.6%
viability, T/C (second compound 3.16 µM, first compound 0.316 µM): 79.6%
viability, T/C (second compound 3.16 µM, first compound 1 µM): 62%
viability, T/C (second compound 3.16 µM, first compound 3.16 µM): 61.9%
viability, T/C (second compound 3.16 µM, first compound 10 µM): 31.2%
viability, T/C (second compound 10 µM, first compound 0.0316 µM): 50.6%
viability, T/C (second compound 10 µM, first compound 0.1 µM): 63.9%
viability, T/C (second compound 10 µM, first compound 0.316 µM): 41.4%
viability, T/C (second compound 10 µM, first compound 1 µM): 44.5%
viability, T/C (second compound 10 µM, first compound 3.16 µM): 37.2%
viability, T/C (second compound 10 µM, first compound 10 µM): 22.8%
